Data from ChEMBL document CHEMBL3507680, “University of Dundee, Gates Library screen for HepG2 cell viability”.

Assay: Human HepG2 cell viability assay in 384 well format
Format: toxicity, cell-based
Design: dose 125 nL, time 70.5 hour; cytotoxicity at 70.5 h: concentration not given beside the values
Settings: HepG2 cells, read-out: Inhibition

SMILES	cytotoxicity at 70.5 h
Cc1cccc(-c2nc(C)nn2CC(=O)N(C)C2CC2)c1	-5.01%
CC(C)CN1CC2(CCN(C(=O)c3cnccn3)CC2)CC1=O	-15%
CCN1CCN(c2ccccc2NC(=O)N(C)C2CCSC2)CC1 (centres undefined)	-13.8%
COc1ccc2c(=O)n(CC3CCCCN3C)ccc2c1OC (centres undefined)	-4.5%
Cc1cnc(N2CCC(c3ccccc3)CC2)nc1-c1ccnn1C	-6.13%
CNC(=O)Nc1cc(-c2ccccc2C)nn1CCO	21.1%
CC(C)n1cnc2c1C(C(=O)NCCC#N)N(Cc1ccccc1)CC2 (centres undefined)	-16.7%
O=C1NC2(CCNCC2)CC1c1ccncc1 (centres undefined)	10.1%
Cc1c(CCC(=O)N2CCOC(c3cnccn3)C2)cnn1C (centres undefined)	-2.28%
Cn1cc(CN2CC[C@H]3OCC[C@@H](C(=O)NCc4ccco4)[C@@H]3C2)cn1	-8%
COc1ccccc1CNC(=O)CN(C)C(C)c1ccon1 (centres undefined)	-18.5%
CCNC(=O)N1CCC(=Cc2ccccc2)CC1	1.05%
c1ncc2c(n1)CN(Cc1nc(-c3ccc4c(c3)OCO4)no1)CC2	-4.3%
CCn1nc(C)c2c1cnn2CCNS(=O)(=O)CC	3.21%
CN(C)[C@H]1CCCCN(Cc2cnc(NCc3ccccc3)nc2)C1	-1.39%
O=C(CCn1ccc2ccc(Br)cc21)NCc1ccc(C(=O)O)cc1	-21.2%
CN1CCN(Cc2ccc(-c3ccc4[nH]ccc4c3)nc2)CC1	-15.3%
CCC(NCc1ccccc1C)c1ccccc1OCC(=O)NC (centres undefined)	25.2%
CCc1nc(C2CCCN2CC(=O)NCCc2ccsc2)no1 (centres undefined)	0.0583%
CNC(=O)CN1CCN(C(=O)c2ccn(C)c(=O)c2)CC1	31.2%
O=S(=O)(C1CC1)N1CCO[C@H]2[C@H](OCC3CC3)CC[C@@H]21	16.9%
O=S(=O)(Cc1ccccc1)NCC1CCCN(Cc2cccs2)C1 (centres undefined)	-0.373%
Cc1csc(C2CCCN(C(=O)c3cnc[nH]3)C2)n1 (centres undefined)	-0.708%

SMILES	cytotoxicity at 70.5 h
Cc1ccc(-c2nn(C)c(C(=O)O)c2Br)cc1	-20.5%
c1cc(-c2c[nH]c([C@@H]3COCCN3CC3CC3)n2)ccn1	-1.9%
CCOc1ncccc1NC(=O)NC1CCN(c2ncccn2)CC1	2.59%
O=C(NCc1ccccc1CN1CCOCC1)c1ccc(Br)cc1F	2.01%
Cn1ccc(CN2CCOCC23CCNCC3)n1	-6.05%
O=C(COCc1nc(-c2ccncc2)no1)NC1CCCCC1	-2.53%
COc1ccc(CN2CCC3(CC2)NC(=O)CC3c2cnn(C)c2)cc1 (centres undefined)	-8.08%
Cc1noc(C)c1C(=O)NCCc1cccs1	0.104%
CS(=O)(=O)NCc1cc(-c2cc(F)cc(F)c2)nc(N2CCCC2)n1	-12.8%
Cc1cc(N(C)Cc2ccsc2)n2nc(C)c(C)c2n1	-10.9%
CN1C[C@H](COCC2CC2)[C@H]2CCN(Cc3ccco3)CC[C@H]2C1=O	7.68%
Cc1cnc(CN(Cc2cccc(O)c2)CC2CC2)cn1	-6.41%
O=S(=O)(NCC1CCN(c2cnccn2)CC1)c1cccs1	5.13%
COc1ccc(CN2CC[C@@]3(C2)[C@H](O)CN(C)S3(=O)=O)cc1F	0.857%
COc1cc2c(cc1-c1nc3c(cnn3C)[nH]1)OCO2	12.3%
COCC(=O)NCCc1ccc(I)s1	-8.78%
CC(CO)(NC(=O)NCCc1ccc(Br)s1)C1CC1 (centres undefined)	-11%
Cc1ccc(C(=O)N2C[C@@H]3OCCN(C)[C@@H]3C2)cn1	-2.77%
O=C1[C@H]2CN(Cc3ccc(F)cc3)C[C@H]2CN1c1ccsc1	-13.2%
Cc1ncc(C(=O)N2CCCN(Cc3ccccc3F)CC2)c(O)n1	-12.9%
O=C(NCc1ccc(-n2cncn2)nc1)c1cc[nH]n1	-4.63%
O=C(Cn1cccn1)Nc1ccc(N2CCOCC2)cc1	0.51%
Cn1nc(C(C)(C)C)cc1NC(=O)Cn1ccnc1	-10.5%

SMILES	cytotoxicity at 70.5 h
CN(C(=O)C(c1c(F)cccc1Cl)N(C)C)c1nccs1 (centres undefined)	3.15%
O=C(Cc1ccccn1)N1CCC2(CC1)CN(CC1CC1)C(=O)CO2	-5.52%
CN(CCO)C(=O)c1coc(CN2CCN(c3ccccc3F)CC2)n1	-7.76%
CN(CCCN1CCOCC1)[C@@H]1c2ccccc2C2(CCNCC2)[C@H]1O	-7.93%
Cn1ccnc1CN1CCCN(C(=O)COCC2CC2)CC1	-3.74%
N#Cc1ccc(C(=O)N2CCn3cc(CN4CCCCC4)nc3C2)cc1	-11.7%
CC(C)(C)c1ccn(C2(C(=O)O)CCN(c3ncccc3C#N)CC2)n1	-2.37%
COc1ccc(CC(=O)N2CCCC(n3cc(C)cn3)C2)c(OC)c1 (centres undefined)	-6.34%
CCOCC1CN(C(=O)Cc2ccccn2)Cc2cn(CC)nc21 (centres undefined)	-8.43%
Cn1cc(C2(C)CN(Cc3ccc(O)c(Cl)c3)CCO2)cn1 (centres undefined)	-6.24%
CC(C)c1ccc(OCCC(=O)N2CCC(C(=O)N(C)C)CC2)cc1	-3.99%
CCn1cc(CNc2ccc(N(C)CCOC)cn2)cn1	-2.51%
Fc1cnc(N2CC[C@@H](N3CCOCC3)[C@@H]2Cc2ccccc2)nc1	8.96%
CC(SCc1ccc(Br)c2cccnc12)C(N)=O (centres undefined)	18.2%
CSCC(=O)N1CCCC1c1noc(C2CC2)n1 (centres undefined)	-4.73%
COc1cccc(Cn2cc(C3=CCN(CCO)CC3)cn2)c1	-11%
COc1ccc(C(=O)N(C)Cc2nnc3ccccn23)c(OC)c1OC	-11.4%
CCn1cc(C(=O)N2CCCC(c3nccs3)C2)cn1 (centres undefined)	-2.34%
COCC(C)N(Cc1ccccc1OC)C(=O)c1cc(C)[nH]c(=O)c1 (centres undefined)	-5.15%
O=C(NCC(O)c1ccoc1)Nc1cccs1 (centres undefined)	-6.41%
CCN(CCC(F)(F)F)C(=O)Nc1cccc(N2CCOCC2)c1	-7.71%
Cc1ccnc(C2CN(c3ccnc(C)n3)C2)n1	-5.49%
Cc1nc(CO[C@H]2CN(C(=O)c3cccnc3)[C@@H]3COC[C@H]23)cs1	-6.99%

SMILES	cytotoxicity at 70.5 h
Cc1ccc(CN(CCCN2CCOCC2)Cc2cncn2C)o1	-4.09%
CC(C)n1ccnc1C1CCN(C(=O)c2ccccn2)CC1	-6.85%
Cc1nc(C2CCCN(C(=O)c3ccc(OCC4CC4)cc3)C2)no1 (centres undefined)	31%
CCC(=O)N1CCCN(Cn2nc(C)c(Br)c2C)CC1	-0.667%
CC(C)(C)n1ncc2c1NC(=O)CC2c1ccccc1 (centres undefined)	-7.73%
O=C(O)c1ncccc1OCC(F)(F)F	-0.00705%
CN(Cc1cccc2cnccc12)C(=O)CCc1n[nH]c2c1CCCC2	-9.31%
O=C1NCCCc2[nH]c(Cc3cccc(Cl)c3)nc21	0.226%
CC(C)Cc1noc(CNc2ccccc2CC(=O)N(C)C)n1	-3.15%
Cn1cc(C2CCCN2C(=O)CCCc2cccs2)cn1 (centres undefined)	-12.4%
COc1ccc(CNC[C@@]2(COc3cccnc3)C[C@@H](O)[C@@H](O)C2)cc1	10.2%
Cc1n[nH]c(C)c1CN1CCC(c2cc(C(C)C)n[nH]2)CC1	1.2%
CCn1c(C2CCCN(S(=O)(=O)C3CC3)C2)nn(CCN(C)C)c1=O (centres undefined)	0.856%
CSCC(C)NS(=O)(=O)c1ccc(C)c(N(C)C)c1 (centres undefined)	-4.35%
COCCc1noc(CN2CC(C)(c3ccccc3)CCC2=O)n1 (centres undefined)	-9.17%
CC1CCN(S(=O)(=O)c2cccnc2)c2ccccc2S1 (centres undefined)	-3.73%
Clc1ccccc1C1(c2ccnc(CC3CC3)n2)CCNCC1	4.53%
COc1ccc(C(=O)NC2CCN(c3ncccn3)CC2)cc1F	-8.33%
O=C(Cn1ccc2sccc2c1=O)NCc1ccc2c(c1)OCO2	-6.54%
Cc1ccc(C(=O)N2CCC3(CC2)NC(=O)CC3c2ccccc2)cn1 (centres undefined)	5.79%
Cc1ocnc1C(=O)N1CC[C@@H](O)[C@@H](O)[C@H](N2CCC(F)(F)CC2)C1	-3.42%
CN1CCN(C2COC3(CCN(Cc4ccc(F)cc4)CC3)C2)CC1 (centres undefined)	-11.8%
CCCc1noc(CCC(=O)Nc2cc(C(F)(F)F)c[nH]c2=O)n1	-6.41%

SMILES	cytotoxicity at 70.5 h
Cc1ccccc1CCCN(C)S(C)(=O)=O	-3.41%
CN(Cc1c(F)cccc1Cl)C(=O)Nc1cnn(CC(N)=O)c1	6.9%
O=C(c1ccc(S(=O)(=O)N2CCSCC2)cc1)N1CCCCCC1	14.7%
Cc1cc2ccccc2n1CC(=O)NC(C)C(=O)N1CCOCC1 (centres undefined)	-8.04%
CC(C)OCCCNC(=O)CS(=O)(=O)Cc1ccc(C(C)C)cc1	-0.615%
COCC1COCCC12CCN(C(=O)CC1=CCCCC1)CC2 (centres undefined)	-2.79%
Cc1noc(C)c1CN1C[C@@H](C(=O)O)[C@H](c2ccccn2)C1	-6.58%
CCC[C@@H]1CN(Cc2nnc(-c3cccnc3)o2)C[C@H]1NC(C)=O	-7.21%
CCC(=O)N1CCN(c2ncnc3c(C)nn(C)c23)CC1	15.4%
CCN1CCn2c(C)cnc2C12CCN(C(=O)c1ccco1)CC2	-4.85%
CCS(=O)(=O)CCn1ccc(NC(=O)CCc2cccc(C)c2)n1	-2.75%
O=C(c1cc(-n2cccn2)ccn1)N(CC(F)(F)F)C1CCCC1	-2.14%
O=C(NCc1ccccc1CO)Nc1ccc2c(c1)CCO2	7.29%
Cn1ncc2c(N3CCCC(C)(O)C3)nc(-c3cccnc3)nc21 (centres undefined)	9.87%
CNC(=O)C1(CCCc2ccccn2)CN(Cc2nccn2C)C1	-9.75%
O=C(C1SCCc2sccc21)N1CCN(CCO)CC1 (centres undefined)	-2.81%
Cc1nc2n(n1)CC(Nc1nc(C(F)(F)F)nc3ccccc13)CC2 (centres undefined)	-1.15%
CN(Cc1ccncc1)C1COC2(CCN(c3ncc(F)cn3)CC2)C1 (centres undefined)	-1.66%
Nc1nccc(N[C@H]2CN(CC(=O)NC3CCCCC3)C[C@@H]2C2CC2)n1	5.92%
O=C(c1cc(-c2ccco2)nc2c(Cl)cccc12)N1CC[C@H]2CNC[C@H]21	19.8%
CC(C)N1CCCCC1c1nc(N(C)C)ncc1I (centres undefined)	23.9%
COc1ccc(CN2C[C@H]3C[C@H](C(=O)Nc4cccnc4)[C@@H](C2)O3)cc1	-3.51%
